From US12636274B2, “Pharmaceutical compositions and methods for systemic treatment of solid tumors” (7 HILLS INTERESTS LLC, priority 2014, dated 2026)
Marks after values point to notes of the source that are not given here.

Assays:
[1] = Clinical symptoms in monkeys; assay type: in vivo
VCAM-1 = assay: Cell migration across VCAM-1 membrane toward SDF-1; assay type: cell-based; settings: FIG. 5; different concentrations; SDF-1 in bottom part
Experimental: Referring now to FIG. 5, an apparatus for testing VCAM-1 and ICAM-1 cell migration, where the cells are initially placed in the top part of the apparatus including a member including VCAM-1 or ICAM-1, with the bottom part of the apparatus initially including SDF-1. Cell migration is then measured from top part to the bottom part for different concentration of CDPD 1, a compound of Formula (I) of VCAM-1 and ICAM-1 impregnated membrane.

α5β1/Fibronectin = α5β1/Fibronectin (Homo sapiens, UniProt P05556+P08648); assay: Integrin activation, adhesion α5β1/Fibronectin; assay type: cell-based; settings: 50% serum; n = 3; read-out: Integrin Selectivity EC50 α5β1/Fibronectin
α5β1/Fibronectin, sequence (P08648 42-894 limits assumed): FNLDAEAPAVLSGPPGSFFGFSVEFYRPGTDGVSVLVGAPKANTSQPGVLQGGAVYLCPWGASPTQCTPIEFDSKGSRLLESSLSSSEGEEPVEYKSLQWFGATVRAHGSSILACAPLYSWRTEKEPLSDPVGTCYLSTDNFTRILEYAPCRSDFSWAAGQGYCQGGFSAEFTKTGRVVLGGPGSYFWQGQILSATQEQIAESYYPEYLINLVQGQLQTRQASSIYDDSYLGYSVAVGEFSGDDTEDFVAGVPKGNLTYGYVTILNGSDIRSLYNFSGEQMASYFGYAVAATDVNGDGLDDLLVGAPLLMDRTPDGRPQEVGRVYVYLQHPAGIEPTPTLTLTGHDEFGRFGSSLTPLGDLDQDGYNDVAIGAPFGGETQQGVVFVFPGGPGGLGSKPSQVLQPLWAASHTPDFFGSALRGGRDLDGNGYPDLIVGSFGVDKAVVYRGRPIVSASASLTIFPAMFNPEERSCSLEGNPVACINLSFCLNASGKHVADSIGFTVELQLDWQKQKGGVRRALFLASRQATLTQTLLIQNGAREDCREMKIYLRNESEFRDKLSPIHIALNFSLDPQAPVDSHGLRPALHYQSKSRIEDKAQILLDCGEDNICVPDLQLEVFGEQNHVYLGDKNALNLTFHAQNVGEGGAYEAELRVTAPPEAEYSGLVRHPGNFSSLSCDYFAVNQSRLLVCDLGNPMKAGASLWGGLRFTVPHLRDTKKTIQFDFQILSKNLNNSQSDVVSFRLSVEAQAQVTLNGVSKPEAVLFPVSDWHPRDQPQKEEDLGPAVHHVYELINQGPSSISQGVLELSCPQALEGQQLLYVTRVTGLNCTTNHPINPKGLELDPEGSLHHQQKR
α5β1/Fibronectin, sequence (P08648 895-1049 limits assumed): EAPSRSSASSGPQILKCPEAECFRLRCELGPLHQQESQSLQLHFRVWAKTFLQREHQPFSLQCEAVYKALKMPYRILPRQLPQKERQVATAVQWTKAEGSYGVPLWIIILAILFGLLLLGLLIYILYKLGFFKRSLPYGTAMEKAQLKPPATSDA
α5β1/Fibronectin, sequence (P05556 21-798): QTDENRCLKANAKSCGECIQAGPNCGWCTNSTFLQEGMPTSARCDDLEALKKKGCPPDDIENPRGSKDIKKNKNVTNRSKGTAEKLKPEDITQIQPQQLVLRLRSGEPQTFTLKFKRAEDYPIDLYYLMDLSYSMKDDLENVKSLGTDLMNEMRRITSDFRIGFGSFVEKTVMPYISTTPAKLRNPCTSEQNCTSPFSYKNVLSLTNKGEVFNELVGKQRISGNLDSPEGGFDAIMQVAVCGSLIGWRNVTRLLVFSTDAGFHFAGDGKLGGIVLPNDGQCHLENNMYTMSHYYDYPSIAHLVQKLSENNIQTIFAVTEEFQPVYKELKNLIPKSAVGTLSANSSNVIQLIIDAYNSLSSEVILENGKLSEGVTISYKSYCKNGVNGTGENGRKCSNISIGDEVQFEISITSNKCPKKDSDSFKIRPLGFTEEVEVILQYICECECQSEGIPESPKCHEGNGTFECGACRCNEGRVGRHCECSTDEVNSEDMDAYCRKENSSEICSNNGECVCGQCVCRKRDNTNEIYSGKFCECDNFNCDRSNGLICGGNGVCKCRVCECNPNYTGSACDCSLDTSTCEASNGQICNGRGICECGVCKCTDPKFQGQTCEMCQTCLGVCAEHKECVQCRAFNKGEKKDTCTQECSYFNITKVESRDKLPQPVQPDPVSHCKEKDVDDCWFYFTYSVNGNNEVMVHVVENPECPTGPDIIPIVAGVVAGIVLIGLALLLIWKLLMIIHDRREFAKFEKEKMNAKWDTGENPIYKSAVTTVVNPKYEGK
Text: (§1) Activating all integrins is necessary for firm endothelial cell adhesion for extravasation.

[2] = test system: CT26 colon cancer syngeneic tumor; assay: Study 2: CT26 syngeneic tumor model in Balb/c mice; assay type: in vivo, Mouse (Mus musculus); settings: for % Tumor Growth Inhibition: 1 mg/kg IP QD at 4 h; for Average Tumor Volume, Mean: 1 mg/kg IP QD
Experimental: Mouse colon carcinoma CT26 cells were obtained from American Type Culture Collection (ATCC), USA. Cells were grown in RPMI-1640 medium (Sigma, Cat # R6504) supplemented with 10% FBS (Invitrogen, Cat #10438-026), and 1% penicillin streptomycin (Thermo Fisher Scientific, Cat #15140-122). To establish allografts, 1 million CT26 cells were suspended in 50 μL of serum-free medium and mixed at 1:1 ratio with matrigel before implanting subcutaneously into the right flank of mice.
Prior to inoculation, the skin on the injection site was swabbed with alcohol. To establish allografts, CT26 cells were suspended in serum free medium at a concentration of (1×10^6)/50 μL, mixed with equal volume of matrigel (1:1 ratio) and 100 μL of this mixture was injected to each mouse by subcutaneous implantation using a 1 mL BD syringe attached to a 24 gauge needle.
CT26 tumor xenografts were measured after approximately 1 week of cell inoculation when they become palpable. When the average tumor volume reaches around 110 mm^3, animals were randomized into treatment groups group maintaining the average tumor volume of each group similar across groups for Study 1 and Study 2. In Study 3, the animals were randomized on the basis of body weights +1 day post cell implantation.
Tumor dimensions (length and breadth) were measured on days 0 (animal randomization based on tumor volume) and thrice weekly thereafter until study termination. Tumor volumes were calculated using the formula (b^2*l)*0.52 where l=length, b=breadth (Dusan Djokovic et al., BMC Cancer, 2010, 10:641). Tumor growth inhibition was calculated after normalizing the tumor volume on a given day to that on day 1.
Mean body weight loss and percent changes were calculated for each group. Similarly, mean tumor volume and percent tumor growth inhibition were calculated. The percent tumor growth inhibition (% TGI) as a function of anti-tumor efficacy were computed with respect to untreated vehicle control by comparing to the tumor volumes of day 1 using formula described below: % TGI=[1−(Treatment TVFinal−Treatment TVInitial)/(Control TVFinal−Control TVInitial)]*100
The test agent, Compound 1 was evaluated in CT26 syngeneic tumor model in Balb/c mice. Compound 1 was administered in mice when the starting tumor volume reached 110±6.9 mm^3 seven days after implantation of CT26 cells.

VLA-4/VCAM-1 = VLA-4/VCAM-1 (Homo sapiens, UniProt P05556+P13612); assay: VLA-4 (α4β1) dependent cell adhesion to VCAM-1; assay type: cell-based; settings: FIG. 3; VCAM-1 and Cmpd 1 versus BSA, VCAM-1 alone, Ig and anti-integrin antibodies
VLA-4/VCAM-1, sequence (P13612 34-1032): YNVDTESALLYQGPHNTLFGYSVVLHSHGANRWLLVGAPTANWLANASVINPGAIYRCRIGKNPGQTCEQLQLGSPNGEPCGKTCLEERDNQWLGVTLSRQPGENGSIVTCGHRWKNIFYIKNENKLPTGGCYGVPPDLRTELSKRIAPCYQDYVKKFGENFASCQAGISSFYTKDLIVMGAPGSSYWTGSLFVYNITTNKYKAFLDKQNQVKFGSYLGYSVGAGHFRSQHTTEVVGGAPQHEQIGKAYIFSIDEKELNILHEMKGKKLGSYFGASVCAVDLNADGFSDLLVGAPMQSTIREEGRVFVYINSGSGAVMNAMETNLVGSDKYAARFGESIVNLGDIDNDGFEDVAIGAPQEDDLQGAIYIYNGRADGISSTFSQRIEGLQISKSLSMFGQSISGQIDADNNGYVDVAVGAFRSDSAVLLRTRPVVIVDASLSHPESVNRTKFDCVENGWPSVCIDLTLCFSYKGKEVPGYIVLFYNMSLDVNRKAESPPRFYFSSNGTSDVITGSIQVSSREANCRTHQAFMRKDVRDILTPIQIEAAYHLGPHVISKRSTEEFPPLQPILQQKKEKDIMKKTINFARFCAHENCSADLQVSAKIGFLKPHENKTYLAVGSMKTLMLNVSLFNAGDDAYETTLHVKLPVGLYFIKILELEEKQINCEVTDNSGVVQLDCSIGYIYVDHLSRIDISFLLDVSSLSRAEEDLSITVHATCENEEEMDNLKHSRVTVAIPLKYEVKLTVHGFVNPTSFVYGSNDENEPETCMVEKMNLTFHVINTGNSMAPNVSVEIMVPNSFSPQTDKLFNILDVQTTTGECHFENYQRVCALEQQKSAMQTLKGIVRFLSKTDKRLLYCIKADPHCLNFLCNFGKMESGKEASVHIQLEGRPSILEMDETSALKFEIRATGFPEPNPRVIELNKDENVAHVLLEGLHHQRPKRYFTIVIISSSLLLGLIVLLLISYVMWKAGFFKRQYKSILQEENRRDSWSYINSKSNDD
VLA-4/VCAM-1, sequence (P05556 21-798): as the sequence (P05556 21-798) above
Text: Referring now to FIG. 3, a histogram is shown of induced VLA-4 (α4β1) dependent cell adhesion to VCAM-1 in the presence of BSA, VCAM-1, VCAM-1 and a compound of Formula (I) (Cmpd 1), Ig, anti-α4, anti-αL, anti-β1, and anti-β2.
as §1

[3] = Safety margin (STD 10) and autoimmune toxicity; settings: in vivo

## O=C(OCCOCCOCCOC(=O)N(Cc1cccs1)Cc1cccs1)N(Cc1cccs1)Cc1cccs1 [Compound 1, 3-oxo-1-(2-thienyl)-2-(2-thienylmethyl)-4,7,10-trioxa-2-azadodecan-12-yl bis(2-thienylmethyl)carbamate]
[1]
  exposure up to which no clinical symptoms: ~50 times therapeutic exposure
  exposure with no adverse clinical symptoms: > 50 times therapeutic exposure
VCAM-1
  cell migration, VCAM-1: migration enhancement
α5β1/Fibronectin
  EC50: 7.7 ± 2.3 µM
[2]; Day 2
  % Tumor Growth Inhibition: −6.6%
  Average Tumor Volume, Mean: 171 mm^3
[2]; Day 4
  % Tumor Growth Inhibition: 33.0%
  Average Tumor Volume, Mean: 244 mm^3
[2]; Day 6
  % Tumor Growth Inhibition: 38.9%
  Average Tumor Volume, Mean: 343 mm^3
[2]; Day 8
  % Tumor Growth Inhibition: 31.6%
  Average Tumor Volume, Mean: 545 mm^3
[2]; Day 10
  % Tumor Growth Inhibition: 33.5%
  Average Tumor Volume, Mean: 744* mm^3
[2]; Day 13
  % Tumor Growth Inhibition: 46.0%
  Average Tumor Volume, Mean: 1038^‡ mm^3
[2]; Day 1
  Average Tumor Volume, Mean: 111 mm^3
VLA-4/VCAM-1
  bound cells, adhesion to VCAM-1: highest bound cells
[3]
  autoimmune toxicity: no autoimmune toxicity
  safety margin (STD 10): > 300 times therapeutic exposure
